12 molecules from ChEMBL document CHEMBL1201862, “PubChem BioAssay data set” (2004) can be followed below.

Common to all, as to test: NCI-60 cell line screen, 48 h
In assay [1] the test system is SK-MEL-28.
The test system of assay [2] is DU-145.
For assay [3], the system named is M19-MEL.
Assay [4] deals with SNB-75.
In assay [5] the test system is KM-20L2.
The subject of assay [6] is A549.
For assay [7], the system named is SF-539.
For assay [8], the system named is RXF 393.
Assay [9] relates to ACHN.
The test system of assay [10] is OVCAR-5.
The test system of assay [11] is NCI-H226.
The subject of assay [12] is K562.
The test system of assay [13] is NCI-H23.
The subject of assay [14] is U-251.
In assay [15] the test system is MOLT-4.
Assay [16] deals with SK-OV-3.
In assay [17] the test system is MDA-MB-435.
Assay [18] has as its system OVCAR-8.
Assay [19] relates to SNB-78.
For assay [20], the system named is MCF7.

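Five compound concentrations were applied to cells in 96-well plates for 48 hours; endpoints were derived by simple linear interpolation of the resulting dose-response curve. GI50 marks 50% less growth.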 The source made the active and inactive calls. Cut-off read from the data, not from the text of the source: active = GI50 up to about 1.1 µM and inactive = higher. A value given as a limit tells only on which side of the number the result lay.

As for `COc1ccc2c(=O)cc(-c3ccc(OC)c(OC)c3OC)oc2c1`, the GI50 is > 100 µM (inactive) in assay [1]; > 100 µM (inactive) in assay [2]; 67.9 µM (inactive) in assay [3]; 23.4 µM (inactive) in assay [4]; 26.5 µM (inactive) in assay [5]; 4.81 µM (inactive) in [6]. Moreover, the GI50 in [7] is > 57.3 µM (inactive); in assay [8], > 80.9 µM (inactive); in [9], > 63.2 µM (inactive); in assay [10] it was > 69 µM (inactive); in [11] it was > 65.9 µM (inactive); in assay [12], 37.1 µM (inactive). The GI50 in assay [13] was > 100 µM (inactive); in [14], > 100 µM (inactive); in assay [15], 55.5 µM (inactive); in assay [16], > 89.1 µM (inactive); in assay [17], > 100 µM (inactive); in assay [18] it was > 100 µM (inactive).

Turning to `Cc1ccc(-n2c3nc(=O)n(C)c(=O)c-3nc3ccccc32)cc1`, the GI50 in assay [4] was 10.9 µM (inactive); in [5], 5.27 µM (inactive); in assay [6] it was 6.43 µM (inactive); in [7] it was 27.8 µM (inactive); in assay [8], 64.9 µM (inactive); in assay [9], 3.26 µM (inactive). Also, the GI50 was 23.8 µM (inactive) in [10]; 17.3 µM (inactive) in [11]; 17 µM (inactive) in assay [12]; 1.56 µM (inactive) in [13]; 15.1 µM (inactive) in assay [14]; 14.9 µM (inactive) in [15]. Also, the GI50 in assay [16] is 95.7 µM (inactive); in [18], 9.2 µM (inactive); in [19], 30.5 µM (inactive).

`COc1ccc2cccc(C(=N)c3ccc(C)c4c3CCC4)c2c1`: the GI50 was 13 µM (inactive) in assay [1]; 9.62 µM (inactive) in [3]; 11.8 µM (inactive) in assay [4]; 5.82 µM (inactive) in assay [5]; 13.7 µM (inactive) in assay [6]; 12.8 µM (inactive) in assay [8]. In addition, the GI50 in assay [9] was 9.98 µM (inactive); in assay [10], 6.17 µM (inactive); in assay [11] it was 12.2 µM (inactive); in assay [12], 2.92 µM (inactive); in [13] it was 7.57 µM (inactive); in assay [14], 9.57 µM (inactive). In addition, the GI50 was 8.63 µM (inactive) in assay [15], 14.5 µM (inactive) in [16] and 11.4 µM (inactive) in assay [18].

As for `COc1ccc2nccc(C3=CCC4CCN(C(=O)c5ccccc5)C3C4)c2c1` (centres undefined), the GI50 was > 100 µM (inactive) in assay [1]; > 100 µM (inactive) in assay [3]; 93.5 µM (inactive) in [4]; > 100 µM (inactive) in assay [6]; > 100 µM (inactive) in assay [7]; > 100 µM (inactive) in assay [8]. Besides, the GI50 in [12] is 74.5 µM (inactive); in assay [13] it was > 100 µM (inactive); in assay [14] it was > 100 µM (inactive); in [15], 44.9 µM (inactive); in [16] it was > 100 µM (inactive); in [18], > 100 µM (inactive). Besides, the GI50 in assay [19] is > 100 µM (inactive).

For `C=CCOC(=O)NC1C(OC(C)[C@@H](NC(=O)OCc2ccccc2)C(=O)OC(C)(C)C)OC(COC(C)=O)C(OC(C)=O)C1OC(C)=O` (some centres undefined), the GI50 in assay [20] was > 100 µM (inactive); in assay [1], > 100 µM (inactive); in assay [2] it was > 100 µM (inactive); in assay [4], 2.85 µM (inactive); in assay [6], > 100 µM (inactive); in assay [7] it was > 100 µM (inactive). Moreover, the GI50 in assay [8] was > 100 µM (inactive); in assay [9] it was > 100 µM (inactive); in [10] it was > 100 µM (inactive); in assay [11] it was > 100 µM (inactive); in assay [12], 72.9 µM (inactive); in assay [13], > 100 µM (inactive). The GI50 is > 100 µM (inactive) in [14]; 25.8 µM (inactive) in assay [15]; > 100 µM (inactive) in assay [16]; 39.4 µM (inactive) in assay [17]; 65 µM (inactive) in [18].

On to `COCc1c(CO)cnc(C)c1OC1OC(CO)C(O)C(O)C1O` (centres undefined), for which the GI50 in assay [1], in assay [3], in [4], in assay [5], in assay [6] and in [7] was > 100 µM (inactive) throughout. The GI50 in assay [8], in assay [9], in assay [10], in assay [11], in assay [12] and in assay [14] was > 100 µM (inactive) each time. Also, the GI50 in assay [15], in assay [16] and in assay [18] was > 100 µM (inactive) throughout.

As to `Cc1c2oc(=O)c(C#N)cc2c2ccccn12`, the GI50 in assay [20] is > 100 µM (inactive); in assay [1], > 100 µM (inactive); in assay [2] it was > 100 µM (inactive); in [4], > 100 µM (inactive); in [6], > 100 µM (inactive); in [7] it was 81.7 µM (inactive). The GI50 in assay [8] was > 100 µM (inactive); in [9], > 100 µM (inactive); in assay [10], > 100 µM (inactive); in assay [11] it was > 100 µM (inactive); in assay [12], > 100 µM (inactive); in [13] it was 7.64 µM (inactive). In addition, the GI50 in assay [14] is 99.3 µM (inactive); in assay [15], > 100 µM (inactive); in [16], > 100 µM (inactive); in [17], > 100 µM (inactive); in assay [18] it was > 100 µM (inactive).

As to `O=c1c2cc(I)ccc2nc(SCc2n[nH]c(=S)o2)n1Cc1ccccc1`, the GI50 is 15.9 µM (inactive) in assay [20]; 17.5 µM (inactive) in assay [1]; 16.3 µM (inactive) in [2]; 4.78 µM (inactive) in assay [4]; 20.4 µM (inactive) in [6]; 16.1 µM (inactive) in [7]. The GI50 was < 0.01 µM (active) in [8]; 15.3 µM (inactive) in assay [9]; 24.8 µM (inactive) in assay [10]; 11.1 µM (inactive) in [11]; 14.4 µM (inactive) in assay [12]; 16.3 µM (inactive) in [13]. For the same molecule, the GI50 in [14] was 17.6 µM (inactive); in assay [15], 20.7 µM (inactive); in [16], 23.4 µM (inactive); in assay [17] it was 19.3 µM (inactive); in assay [18], 19.1 µM (inactive).

For the molecule `C[N+](C)([O-])CCCNc1ccnc2cccc([N+](=O)[O-])c12`, the GI50 in [20] was 27.4 µM (inactive); in assay [1], 72.6 µM (inactive); in [2], 20.9 µM (inactive); in [4], 39.2 µM (inactive); in assay [6], 47.4 µM (inactive); in assay [7], 22 µM (inactive). Moreover, the GI50 is 18.7 µM (inactive) in assay [8]; 33.1 µM (inactive) in assay [9]; > 100 µM (inactive) in assay [10]; 47.1 µM (inactive) in assay [11]; 38.5 µM (inactive) in [12]; 34.6 µM (inactive) in assay [13]. Also, the GI50 was 34.8 µM (inactive) in assay [14]; 20.2 µM (inactive) in [15]; 80.7 µM (inactive) in assay [16]; 46.2 µM (inactive) in assay [17]; 81.3 µM (inactive) in assay [18].

Take `Cc1nc(-n2nc(-c3ccccc3)cc2-c2ccccc2)sc1C(=O)CC(=O)C(=O)Nc1ccc(O)cc1`: the GI50 in assay [4], in assay [5], in assay [6], in assay [7], in assay [8] and in assay [9] was > 100 µM (inactive) throughout. In addition, the GI50 in assay [10], in assay [11], in assay [12], in assay [13], in [14] and in assay [15] was > 100 µM (inactive) each time. In addition, the GI50 in [16], in assay [18] and in assay [19] was > 100 µM (inactive) in each case.

For `CC1(C)CC(=O)C=C(NC(=O)c2ccccc2)C1`, the GI50 in [1], in [3], in [4], in [6], in [7] and in assay [8] was > 100 µM (inactive) throughout. In addition, the GI50 in [12], in [13], in assay [14], in assay [15], in [16] and in [18] was > 100 µM (inactive) each time. The GI50 in assay [19] was > 100 µM (inactive).

With `CC(=O)NC1=C(NCCCl)C(=O)c2ccccc2C1=O`, the GI50 is 35.2 µM (inactive) in assay [20]; 72.3 µM (inactive) in assay [1]; 30.5 µM (inactive) in [2]; 24.3 µM (inactive) in [4]; 35.4 µM (inactive) in [6]; 40.8 µM (inactive) in assay [7]. The GI50 was 30 µM (inactive) in [8]; 42.8 µM (inactive) in [9]; 81.8 µM (inactive) in assay [10]; 49.1 µM (inactive) in assay [11]; 27.9 µM (inactive) in assay [12]; 26.1 µM (inactive) in [13]. The GI50 in assay [14] was 39.1 µM (inactive); in assay [15] it was 25.1 µM (inactive); in [16] it was 59.2 µM (inactive); in assay [17], 16.6 µM (inactive); in assay [18], 20 µM (inactive).
